# Data taken from ChEMBL document CHEMBL2412967, “A FRET-based assay for the discovery of West Nile Virus NS2B-NS3 protease inhibitors” (Bioorg Med Chem Lett, 2013).
# Peptide text beside a SMILES is read from it.
# Assays:
# West Nile virus [1] = test: Activity at West Nile Virus NS2B-NS3 protease expressed in Escherichia coli BL21 (DE3) after 1 hr by colorimetric assay
# West Nile virus [2] = test: Ratio of kcat to Km for West Nile Virus NS2B-NS3 protease expressed in Escherichia coli BL21 (DE3) after 1 hr by colorimetric assay
# West Nile virus [3] = test: Activity at West Nile Virus NS2B-NS3 protease expressed in Escherichia coli BL21 (DE3) after 1 hr by FRET assay
# West Nile virus [4] = test: Ratio of kcat to Km for West Nile Virus NS2B-NS3 protease expressed in Escherichia coli BL21 (DE3) after 1 hr by FRET assay
compound,measurement,setting,value
COc1ccc2c(CC(=O)N[C@@H](CCCCN)C(=O)N[C@@H](CCCCN)C(=O)N[C@@H](CCCNC(=N)N)C(=O)NCC(=O)NCC(Nc3ccc([N+](=O)[O-])cc3[N+](=O)[O-])C(=O)N[C@@H](C)C(=O)N[C@@H](CCCCN)C(N)=O)cc(=O)oc2c1 (stereo partly specified) (HELM PEPTIDE1{[COc1ccc2c(CC(=O)[*:2])cc(=O)oc2c1].K.K.R.G.[C[C@H](NC(=O)C(CN[*:1])Nc1ccc([N+](=O)[O-])cc1[N+](=O)[O-])C(=O)N[C@@H](CCCCN)C(N)=O]}$$$$V2.0),Km,West Nile virus [1],69.9 µM
same,kcat,West Nile virus [1],0.263 s⁻¹
same,kcat/Km,West Nile virus [2],3760 M⁻¹ s⁻¹
same,Km,West Nile virus [3],3.35 µM
same,kcat,West Nile virus [3],0.0717 s⁻¹
same,kcat/Km,West Nile virus [4],21400 M⁻¹ s⁻¹
